The record followed here is patent US20260272936A1, “TREATMENT OF CANCER WITH A PARG INHIBITOR” (858 Therapeutics, Inc., priority 2023, published 2026).

pEC50, pIC50: −log10 of the molar value.

Holding throughout (assay type): cell-based
One assay has as its system HeLa cells. In words: MMS-induced nuclear PAR accumulation, immunofluorescence imaging. The note with it: Homo sapiens, 50 μg/mL MMS, n=26, read-out: Geometric Mean EC50, PAR accumulation. On the procedure: (§1) The HeLa (Cat #CCL-2) and OVCAR-3 (Cat #HTB-161) human cancer cell lines were obtained from ATCC (Manassas, Virginia, USA) and the RMUG-S(Cat #IFO50320) and Kuramochi (Cat #JCRB0098) cell lines were obtained from the National Institutes of Biomedical Innovation, Health and Nutrition's Japanese Collection of Research Bioresources (Ibaraki City, Osaka, Japan).
(§2) All cell lines were grown in an incubator at 37° C. in 5% CO2. HeLa cells were cultured in Dulbecco's Modified Medium (DMEM)+glutaMAX™ (Thermo Fisher Scientific, Waltham, MA, USA Cat #10566-016) containing 1% penicillin/streptomycin (pen/strep) (Thermo Fisher Scientific Cat #15070-063), and 10% fetal bovine serum (FBS) (Thermo Fisher Scientific Cat #A31605-02). Kuramochi cells were cultured in RPMI medium+glutaMAX™ (Thermo Fisher Scientific Cat #72400-047), 10% FBS, and 1% pen/strep. RMUG-S cells were cultured in Ham's F12 medium+glutaMAX™ (Thermo Fisher Scientific Cat #31765-035) containing 10% FBS, and 1% pen/strep. OVCAR-3 cells were cultured in RPMI medium+glutaMAX™ containing 20% FBS, 1% pen/strep, and 0.01 mg/mL bovine insulin (MilliporeSigma, Burlington, MA, USA Cat #10516-5ML).
(§3) Compound 1 EC50 values for accumulation of PAR chains were determined using an immunofluorescence high-content imaging assay of PAR staining. Cells were harvested with trypsin (Thermo Fisher Scientific, Cat #25200-056) and plated in black-walled, clear bottom 96-well Corning Costar 3603 plates (VWR, Radnor, PA, USA Cat #29444-008) at 15,000 cells/well in 100 μL normal growth media. The cells were incubated overnight at 37° C., 5% CO2. The following day, a 1000× Compound 1 concentration curve was prepared by serial dilution of Compound 1 in 100% DMSO for twelve concentrations with the highest starting final concentration of 10 μM. The 1000× test compound curve was diluted 1:200 into growth media to prepare a 5× concentration curve in 0.5% DMSO/media before addition of 25 μL of compound or 0.5% DMSO/media alone to each well of the plate. The plate was mixed gently on a plate shaker and then preincubated at 37° C., 5% CO2 for 1 hour. A 2.25× stock of MMS (Sigma Cat #129925-5G) plus Compound 1 in media was prepared by diluting a 100 mg/mL stock of MMS prepared in 100% DMSO into growth media containing 1× Compound 1 compound. […] Nuclear PAR accumulation was evaluated by imaging the plates on an ImageXpress Pico automated cell imaging system (Molecular Devices, San Jose, CA, USA).
(§4) Four fields for each well were acquired at 20× magnification resulting in at least 1,000 cells analyzed per well. Percent PAR positive cells were calculated using CellReporterXpress software (Molecular Devices, San Jose, CA, USA) using nuclei detection by DAPI image segmentation then setting a fluorescence intensity threshold for PAR. […]

The next assay has as its system Kuramochi cells. The description is as above. The note with it: Homo sapiens, 50 μg/mL MMS, n=3, read-out: Geometric Mean EC50, PAR accumulation. As to the method:
as §1, §2, §3, §4

For a further assay, the system named is OVCAR-3 cells. The description is as above. Particulars: Homo sapiens; OVCAR-3, 50 μg/mL MMS, n=3; read-out: Geometric Mean EC50, PAR accumulation. As to the method:
as §1, §2, §3, §4

For a further assay, the system named is RMUG-S cells. The assay is described as above. The note with it: Homo sapiens, 50 μg/mL MMS, n=3, read-out: Geometric Mean EC50, PAR accumulation. On the procedure: as §1, §2, §3, §4
A further assay relates to Parental SNU601 cells. In words: 6-day proliferation, nuclei count, parental line. The note with it: Homo sapiens, SNU-601, 144 h, read-out: IC50 inhibition of proliferation. On the procedure: The SNU601 gastric carcinoma cell line (Creative Bioarray, Cat #CSC-C9686L) was cultured in RPMI media containing glutamax, 10% fetal bovine serum, and 1% penicillin/streptomycin at 37° C., 5% CO2. To generate a PARP inhibitor resistant cell line, an IC20 concentration of niraparib was added to the culture media.
Compound 1 and the PARP inhibitor niraparib were tested in cellular proliferation assays using the parental SNU601 cell line and the SNU601 cell line with acquired PARPi resistance. For the proliferation assays, cells were plated in 96-well plates (Corning costar 3603) at 2500-5000 cells/well in normal growth media. The next day, compound dissolved in vehicle (0.5% DMSO in media) was added to generate a 7- to 10-point concentration curve with half-log dilutions and starting concentrations of 10 or 31.6 μM. After 6 days of compound or vehicle treatment, the cells were fixed with a solution of 8% paraformaldehyde, 0.2% Triton X-100 for 20 minutes. After washing the cells with PBS, the nuclei were stained by the addition of DAPI (4′,6-diamidino-2-phenylindole) and incubation for 20 minutes. The number of nuclei in each well were counted by imaging the plates on an Image Xpress Pico automated cell imaging system (Molecular Devices). The percent proliferation after treatment was determined by normalizing the number of nuclei in treated wells to the vehicle-treated wells. […]

By pEC50 is commonly meant the negative decadic logarithm of the EC50, by convention in mol/L. With `[2H]C([2H])(c1cnn(C)c1)N1C(=O)c2cc(S(=O)(=O)NC3(C)CC3)ccc2N2C1=NC[C@H]2C` [Compound 1, (R)-1-methyl-4-((1-methyl-1H-pyrazol-4-yl)methyl-d2)-N-(1-methylcyclopropyl)-5-oxo-1,2,4,5-tetrahydroimidazo[1,2-a]quinazoline-7-sulfonamide], the negative logarithm of the EC50 (pEC50) in the assay with HeLa cells was 7.85; with Kuramochi cells, 8.05; in the assay on OVCAR-3 cells, 7.70; in the assay with RMUG-S cells, 7.42. In the assay with Parental SNU601 cells, the pIC50 was 6.68.
